Reference: patent publication US6218379A, “Tricyclic carbacephems” (Hoffmann-la Roche Inc., priority 1996, dated 2001)
≈ marks a conversion by molar mass, not a printed value. Structures can show the parent of a compound that is named as a salt.

Key:
[1] = test system: Citrobacter freundii 1982; assay: Antibacterial activity in vitro (MIC) against Citrobacter freundii 1982; assay type: cell-based; settings: read-out: MIC C. freundii 1982
Protocol: (§1) The minimum inhibitory concentration in vitro (MIC in μg/ml) of a compound of formula I against Citrobacter freundii 1982 and Staphylococcus aureus 887 is measured and compiled in Table 2.

[2] = test system: Staphylococcus aureus 887; assay: Antibacterial activity in vitro (MIC) against Staphylococcus aureus 887; assay type: cell-based; settings: read-out: MIC S. aureus 887
Protocol: as §1

Row | MIC [1] [µg/mL] | MIC [2] [µg/mL] | SMILES
1 | 8 | 2 | CC(=O)N1C[C@H]2CC(/C=C/c3cccnc3)=C(C(=O)O)N3C(=O)[C@@H]1[C@@H]23 [Example 62, (E)-(1aS,3aR,6bR)-2-Acetyl-1-oxo-5-(2-pyridin-3-yl-vinyl)-1a,2,3,3a,4,6b-hexahydro-1H-2,6a-diaza-cyclobut[cd]indene-6-carboxylic acid sodium salt (1:1)]
2 | 32 | 2 | CC(=O)N1C[C@H]2CC(/C=C/c3ccc(O)cc3)=C(C(=O)O)N3C(=O)[C@@H]1[C@@H]23 [Example 60, (E)-(1aS,3aR,6bR)-2-Acetyl-1-oxo-5-[2-(4-hydroxy-phenyl)-vinyl]-1a,2,3,3a,4,6b-hexahydro-1H-2,6a-diaza-cyclobut[cd]indene-6-carboxylic acid sodium salt (1:1)]
3 | 16 | 4 | O=C(O)C1=C(/C=C2\CCN(c3cccnc3)C2=O)C[C@@H]2CN(C(=O)C(F)(F)F)[C@@H]3C(=O)N1[C@H]23 [Example 38, (E)-(1aS,3aR,6bR)-1-Oxo-5-[2-oxo-1-pyridin-3-yl-pyrrolidin-3-ylidenemethyl]-2-trifluoroacetyl-1a,2,3,3a,4,6b-hexahydro-1H-2,6a-diaza-cyclobut[cd]indene-6-carboxylic acid sodium salt (1:1)]
4 | 16 (≈ 35.8 µM) | 0.5 (≈ 1.12 µM) | CC(=O)N1C[C@H]2CC(/C=C/c3cc4ccccc4[n+](CC(N)=O)c3)=C(C(=O)[O-])N3C(=O)[C@@H]1[C@@H]23 [Example 68, (E)-(1aS,3aR,6bR)-2-Acetyl-5-[2-(1-carbamoylmethyl-quinolin-1-ium-3-yl)-vinyl]-1-oxo-1a,2,3,3a,4,6b-hexahydro-1H-2,6a-diaza-cyclobut[cd]indene-6-carboxylate]
5 | 8 (≈ 18.6 µM) | 0.25 (≈ 0.582 µM) | CC(=O)N1C[C@H]2CC(/C=C/c3ccc[n+](Cc4ccccc4)c3)=C(C(=O)[O-])N3C(=O)[C@@H]1[C@@H]23 [Example 66, (E)-(1aS,3aR,6bR)-2-Acetyl-5-[2-(1-benzyl-pyridin-1-ium-3-yl)-vinyl]-1-oxo-1a,2,3,3a,4,6b-hexahydro-1H-2,6a-diaza-cyclobut[cd]indene-6-carboxylate]
6 | 8 (≈ 16.4 µM) | 0.25 (≈ 0.512 µM) | CC(=O)N1C[C@H]2CC(/C=C/c3ccc[n+](CC(=O)Nc4ccc(O)cc4)c3)=C(C(=O)[O-])N3C(=O)[C@@H]1[C@@H]23 [Example 70, (E)-(1aS,3aR,6bR)-2-Acetyl-5-[2-[1-[(4-hydroxyphenylcarbamoyl)-methyl]-pyridin-1-ium-3-yl)-vinyl]-1-oxo-1a,2,3,3a,4,6b-hexahydro-1H-2,6a-diaza-cyclobut[cd]indene-6-carboxylate]
7 | 1 | 4 | CC(=O)N1C[C@H]2CC(/C=C3\CCN(CC(F)(F)F)C3=O)=C(C(=O)O)N3C(=O)[C@@H]1[C@@H]23 [Example 25, (E)-(1aS,3aR,6bR)-2-Acetyl-1-oxo-5-[2-oxo-1-(2,2,2-trifluoroethyl)-pyrrolidin-3-ylidenemethyl]-1a,2,3,3a,4,6b-hexahydro-1H-2,6a-diaza-cyclobut[cd]indene-6-carboxylic acid sodium salt (1:1)]
8 | 64 | 64 | CC(=O)N1C[C@H]2CC(/C=C/c3ccc4ccccc4n3)=C(C(=O)O)N3C(=O)[C@@H]1[C@@H]23 [Example 61, (E)-(1aS,3aR,6bR)-2-Acetyl-1-oxo-5-(2-quinolin-2-yl-vinyl)-1a,2,3,3a,4,6b-hexahydro-1H-2,6a-diaza-cyclobut[cd]indene-6-carboxylic acid sodium salt (1:1)]
9 | 64 | 4 | O=C(O)C1=C(/C=C/c2ccc(O)cc2)C[C@@H]2CN[C@@H]3C(=O)N1[C@H]23 [Example 52, (E)-(1aS,3aR,6bR)-1-Oxo-5-[2-(4-hydroxy-phenyl)-vinyl]-1a,2,3,3a,4,6b-hexahydro-1H-2,6a-diaza-cyclobut[cd]indene-6-carboxylic acid trifluoroacetate (1:0.83)]
10 | 16 | 16 | NC(=O)c1ccc(NC(=O)N2C[C@H]3CC(/C=C4\CCN(CC(F)(F)F)C4=O)=C(C(=O)O)N4C(=O)[C@@H]2[C@@H]34)cc1 [Example 23, (E)-(1aS,3aR,6bR)-2-(4-Carbamoyl-phenylcarbamoyl)-1-oxo-5-[2-oxo-1-(2,2,2-trifluoroethyl)-pyrrolidin-3-ylidenemethyl]-1a,2,3,3a,4,6b-hexahydro-1H-2,6a-diaza-cyclobut[cd]indene-6-carboxylic acid sodium salt (1:1)]
11 | 2 | 8 | CC(=O)N1C[C@H]2CC(/C=C3\CCN(CC(C)C)C3=O)=C(C(=O)O)N3C(=O)[C@@H]1[C@@H]23 [Example 28, (E)-(1aS,3aR,6bR)-2-Acetyl-1-oxo-5-[2-oxo-1-isobutyl-pyrrolidin-3-ylidenemethyl]-1a,2,3,3a,4,6b-hexahydro-1H-2,6a-diaza-cyclobut[cd]indene-6-carboxylic acid sodium salt (1:1)]
12 | 4 | 2 | CC(=O)N1C[C@H]2CC(/C=C/c3ccccn3)=C(C(=O)O)N3C(=O)[C@@H]1[C@@H]23 [Example 58, (E)-(1aS,3aR,6bR)-2-Acetyl-1-oxo-5-(2-pyridin-2-yl-vinyl)-1a,2,3,3a,4,6b-hexahydro-1H-2,6a-diaza-cyclobut[cd]indene-6-carboxylic acid sodium salt (1:1)]
13 | 8 | 4 | O=C(O)C1=C(/C=C2\CCN(c3cccc([N+](=O)[O-])c3)C2=O)C[C@@H]2CN(C(=O)C(F)(F)F)[C@@H]3C(=O)N1[C@H]23 [Example 34, (E)-(1aS,3aR,6bR)-1-Oxo-5-[2-oxo-1-(3-nitro-phenyl)-pyrrolidin-3-ylidenemethyl]-2-trifluoroacetyl-1a,2,3,3a,4,6b-hexahydro-1H-2,6a-diaza-cyclobut[cd]indene-6-carboxylic acid sodium salt (1:1)]
14 | 8 | 4 | O=C(O)C1=C(/C=C2\CCN(C3CC3)C2=O)C[C@@H]2CN(C(=O)C(F)(F)F)[C@@H]3C(=O)N1[C@H]23 [Example 36, (E)-(1aS,3aR,6bR)-1-Oxo-5-[2-oxo-1-cyclopropyl-pyrrolidin-3-ylidenemethyl]-2-trifluoroacetyl-1a,2,3,3a,4,6b-hexahydro-1H-2,6a-diaza-cyclobut[cd]indene-6-carboxylic acid sodium salt (1:1)]
15 | 64 | 4 | O=C(O)C1=C(/C=C2\CCN(c3ccccc3)C2=O)C[C@@H]2CN(C(=O)C(F)(F)F)[C@@H]3C(=O)N1[C@H]23 [Example 37, (E)-(1aS,3aR,6bR)-1-Oxo-5-[2-oxo-1-phenyl-pyrrolidin-3-ylidenemethyl]-2-trifluoroacetyl-1a,2,3,3a,4,6b-hexahydro-1H-2,6a-diaza-cyclobut[cd]indene-6-carboxylic acid sodium salt (1:1)]
16 | 1 | 2 | CC(=O)N1C[C@H]2CC(/C=C3\CCN(c4cccnc4)C3=O)=C(C(=O)O)N3C(=O)[C@@H]1[C@@H]23 [Example 33, (E)-(1aS,3aR,6bR)-2-Acetyl-1-oxo-5-[2-oxo-1-pyridin-3-yl-pyrrolidin-3-ylidenemethyl]-1a,2,3,3a,4,6b-hexahydro-1H-2,6a-diaza-cyclobut[cd]indene-6-carboxylic acid sodium salt (1:1)]
17 | 4 (≈ 8.59 µM) | 2 (≈ 4.3 µM) | CC(=O)N1C[C@H]2CC(/C=C3\CCN(c4ccc[n+](CC(N)=O)c4)C3=O)=C(C(=O)[O-])N3C(=O)[C@@H]1[C@@H]23 [Example 40, (E)-(1aS,3aR,6bR)-2-Acetyl-5-[1-(1-carbamoylmethyl-pyridin-1-ium-3-yl)-2-oxo-pyrrolidin-3-ylidenemethyl]-1-oxo-1a,2,3,3a,4,6b-hexahydro-1H-2,6a-diaza-cyclobut[cd]indene-6-carboxylate]
18 | 16 | 8 | O=C(O)C1=C(/C=C2\CCN(Cc3cccs3)C2=O)C[C@@H]2CN[C@@H]3C(=O)N1[C@H]23 [Example 16, (E)-(1aS,3aR,6bR)-1-Oxo-5-[2-oxo-1-(thiophen-2-ylmethyl)-pyrrolidin-3-ylidenemethyl]-1a,2,3,3a,4,6b-hexahydro-1H-2,6a-diaza-cyclobut[cd]indene-6-carboxylic acid trifluoroacetate (1:0.75)]
19 | 4 | 1 | CC(=O)N1C[C@H]2CC(/C=C3\CCN(c4cccc([N+](=O)[O-])c4)C3=O)=C(C(=O)O)N3C(=O)[C@@H]1[C@@H]23 [Example 30, (E)-(1aS,3aR,6bR)-2-Acetyl-1-oxo-5-[1-(3-nitrophenyl)-2-oxo-pyrrolidin-3-ylidenemethyl]-1a,2,3,3a,4,6b-hexahydro-1H-2,6a-diaza-cyclobut[cd]indene-6-carboxylic acid sodium salt (1:1)]
20 | 32 | 4 | O=C(O)C1=C(/C=C2\CCN(Cc3cccs3)C2=O)C[C@@H]2CN(C(=O)C(F)(F)F)[C@@H]3C(=O)N1[C@H]23 [Example 35, (E)-(1aS,3aR,6bR)-1-Oxo-5-[2-oxo-1-(thiophen-2-yl-methyl)-pyrrolidin-3-ylidenemethyl]-2-trifluoroacetyl-1a,2,3,3a,4,6b-hexahydro-1H-2,6a-diaza-cyclobut[cd]indene-6-carboxylic acid sodium salt (1:1)]
21 | 64 (≈ 125 µM) | 0.5 (≈ 0.974 µM) | CC(=O)N1C[C@H]2CC(/C=C/c3ccc[n+](Cc4ccc(OC(F)(F)F)cc4)c3)=C(C(=O)[O-])N3C(=O)[C@@H]1[C@@H]23 [Example 71]

Row | SMILES | MIC [1] [µg/mL] | MIC [2] [µg/mL]
22 | O=C(O)C1=C(/C=C/c2cccnc2)C[C@@H]2CN[C@@H]3C(=O)N1[C@H]23 [Example 53, (E)-(1aS,3aR,6bR)-1-Oxo-5-(2-pyridin-3-yl-vinyl)-1a,2,3,3a,4,6b-hexahydro-1H-2,6a-diaza-cyclobut[cd]indene-6-carboxylic acid trifluoroacetate (1:1.5)] | 64 | 2
23 | O=C(O)C1=C(/C=C/c2ccccn2)C[C@@H]2CN[C@@H]3C(=O)N1[C@H]23 [Example 50, (E)-(1aS,3aR,6bR)-1-Oxo-5-(2-pyridin-2-yl-vinyl)-1a,2,3,3a,4,6b-hexahydro-1H-2,6a-diaza-cyclobut[cd]indene-6-carboxylic acid trifluoroacetate (1:1.58)] | 64 | 64
